Several values for one entry are separate records, joined by “and”; a condition that tells them apart may be missing. Equal entries are not always repeated. Toxic doses and inconclusive results are not listed.
Test system: BDF1 mice, P388 leukemia ip, median survival T/C
Test: NCI In Vivo Anticancer Drug Screen. Data for tumor model P388 Leukemia (intraperitoneal) in B6D2F1 (BDF1) mice
Settings: endpoint: median survival time, higher = longer survival
Procedure, shortened: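 Survival ratio, drug arm over vehicle arm, in mice with a transplanted tumour.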

`CSc1nc(Cl)cc(N2CC2)n1` was tested, and the T/C (dose: 0.19 mg/kg/injection, schedule: Q04DX003 (ip), vehicle: saline) was 104 % of control, the T/C (dose: 0.39 mg/kg/injection, schedule: Q01DX009 (ip), vehicle: saline) was 95 % of control and the T/C (dose: 0.39 mg/kg/injection, schedule: Q04DX003 (ip), vehicle: saline) was 109 % of control. For the same compound, the T/C (dose: 0.5 mg/kg/injection, schedule: Q01DX009 (ip), vehicle: saline) was 91 % of control, the T/C (dose: 0.78 mg/kg/injection, schedule: Q01DX009 (ip), vehicle: saline) was 100 % of control and the T/C (dose: 0.78 mg/kg/injection, schedule: Q04DX003 (ip), vehicle: saline) was 100 % of control. The T/C (dose: 1.0 mg/kg/injection, schedule: Q01DX009 (ip), vehicle: saline) was 116 % of control, the T/C (dose: 2.0 mg/kg/injection, schedule: Q01DX009 (ip), vehicle: saline) was 95 % of control and the T/C (dose: 3.6 mg/kg/injection, schedule: Q04DX003 (ip), vehicle: saline) was 100 % of control.
For `CCOC1CCC(C(C)=O)C(C#N)(C#N)C1(C#N)C#N` (configuration not stated), the T/C (dose: 6.25 mg/kg/injection, schedule: Q01DX001 (ip), vehicle: saline with Tween-80) was 108 % of control, the T/C (dose: 12.5 mg/kg/injection, schedule: Q01DX001 (ip), vehicle: saline with Tween-80) was 123 % of control and the T/C (dose: 25.0 mg/kg/injection, schedule: Q01DX001 (ip), vehicle: saline with Tween-80) was 110 % of control and 119 % of control. For the same compound, the T/C (dose: 50.0 mg/kg/injection, schedule: Q01DX001 (ip), vehicle: saline with Tween-80) was 124 % of control.
With `CC1(C)c2ccccc2C2C1C1(Cl)C(=O)C2(Cl)C(Cl)=C1Cl` (configuration not stated) the T/C (dose: 100.0 mg/kg/injection, schedule: Q04DX003 (ip), vehicle: saline sonified) was 100 % of control, the T/C (dose: 200.0 mg/kg/injection, schedule: Q04DX003 (ip), vehicle: saline sonified) was 95 % of control and the T/C (dose: 400.0 mg/kg/injection, schedule: Q04DX003 (ip), vehicle: saline sonified) was 100 % of control.
For `COc1cc(O)c2c(c1)C(=O)c1cc3c(c(O)c1C2=O)C(OC1OC(C)C(O)C(O)C1OC)C(OC)C(C)(O)C3=O` (configuration not stated), the T/C (dose: 25.9 mg/kg/injection, schedule: Q01DX009 (ip), vehicle: Klucel (hydroxypropylcellulose) (HPC)) was 116 % of control, the T/C (dose: 37.5 mg/kg/injection, schedule: Q01DX010 (ip), vehicle: carboxymethylcellulose (CMC)) was 150 % of control and the T/C (dose: 37.5 mg/kg/injection, schedule: Q01DX010 (ip), vehicle: saline) was 111 % of control and 115 % of control. For the same compound, the T/C (dose: 43.2 mg/kg/injection, schedule: Q01DX009 (ip), vehicle: Klucel (hydroxypropylcellulose) (HPC)) was 121 % of control, the T/C (dose: 75.0 mg/kg/injection, schedule: Q01DX010 (ip), vehicle: carboxymethylcellulose (CMC)) was 165 % of control and the T/C (dose: 75.0 mg/kg/injection, schedule: Q01DX010 (ip), vehicle: saline) was 120 % of control and 122 % of control. For the same compound, the T/C (dose: 108.0 mg/kg/injection, schedule: Q04DX003 (ip), vehicle: Klucel (hydroxypropylcellulose) (HPC)) was 114 % of control, the T/C (dose: 120.0 mg/kg/injection, schedule: Q01DX009 (ip), vehicle: Klucel (hydroxypropylcellulose) (HPC)) was 106 % of control and the T/C (dose: 180.0 mg/kg/injection, schedule: Q04DX003 (ip), vehicle: Klucel (hydroxypropylcellulose) (HPC)) was 110 % of control. The T/C (dose: 300.0 mg/kg/injection, schedule: Q04DX003 (ip), vehicle: Klucel (hydroxypropylcellulose) (HPC)) was 99 % of control and the T/C (dose: 500.0 mg/kg/injection, schedule: Q04DX003 (ip), vehicle: Klucel (hydroxypropylcellulose) (HPC)) was 97 % of control.
In the case of `CC1=C2C(=O)c3ccccc3C2=C(C)S(=O)(=O)O1`, the T/C (dose: 50.0 mg/kg/injection, schedule: Q01DX009 (ip), vehicle: carboxymethylcellulose (CMC)) is reported as 119 % of control, the T/C (dose: 100.0 mg/kg/injection, schedule: Q01DX009 (ip), vehicle: carboxymethylcellulose (CMC)) is reported as 90 % of control and the T/C (dose: 100.0 mg/kg/injection, schedule: Q04DX003 (ip), vehicle: saline with Tween-80) is reported as 122 % of control.
For `COc1cccc2c1C(=O)CC2`, the T/C (dose: 25.0 mg/kg/injection, schedule: Q01DX009 (ip), vehicle: Klucel (hydroxypropylcellulose) (HPC)) was 100 % of control, the T/C (dose: 50.0 mg/kg/injection, schedule: Q01DX009 (ip), vehicle: Klucel (hydroxypropylcellulose) (HPC)) was 100 % of control and the T/C (dose: 75.0 mg/kg/injection, schedule: Q04DX003 (ip), vehicle: Klucel (hydroxypropylcellulose) (HPC)) was 100 % of control. The T/C (dose: 100.0 mg/kg/injection, schedule: Q01DX009 (ip), vehicle: Klucel (hydroxypropylcellulose) (HPC)) was 96 % of control and the T/C (dose: 150.0 mg/kg/injection, schedule: Q04DX003 (ip), vehicle: Klucel (hydroxypropylcellulose) (HPC)) was 95 % of control.
In the case of `C=C1C(=O)OC2/C=C(\C)CC(O)/C=C(\C)CC(OC(=O)/C(=C\C)COC(C)=O)C12` (configuration not stated), the T/C (dose: 20.0 mg/kg/injection, schedule: Q01DX009 (ip), vehicle: saline) is reported as 122 % of control, the T/C (dose: 44.0 mg/kg/injection, schedule: Q01DX009 (ip), vehicle: saline) is reported as 150 % of control and the T/C (dose: 66.0 mg/kg/injection, schedule: Q01DX009 (ip), vehicle: saline) is reported as 122 % of control.
In the case of `Cc1nc2cnn(C)c2nc1C`, the T/C (dose: 50.0 mg/kg/injection, schedule: Q04DX003 (ip), vehicle: saline) is reported as 114 % of control, the T/C (dose: 100.0 mg/kg/injection, schedule: Q04DX003 (ip), vehicle: saline) is reported as 113 % of control and the T/C (dose: 200.0 mg/kg/injection, schedule: Q04DX003 (ip), vehicle: saline) is reported as 107 % of control. For the same compound, the T/C (dose: 400.0 mg/kg/injection, schedule: Q04DX003 (ip), vehicle: saline) was 88 % of control.

— PubChem BioAssay AID328 (DTP/NCI, 2004)
